How the values were obtained:
Assay in all cases: relative viability (nuclei count vs DMSO), 5 days (fraction); higher = more cells survive
XMD14-99 + Tozasertib = compound: CN1CCN(CC1)C2=CC(=C(C=C2)NC3=NC(=C(S3)C(=O)C4=C(C=CC=C4Cl)Cl)N)OC [XMD14-99] + Cc1cc(Nc2cc(N3CCN(C)CC3)nc(Sc3ccc(NC(=O)C4CC4)cc3)n2)n[nH]1 [Tozasertib] (partner 0.1 µM)
Outline: (§1)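 Nuclei were stained with Hoechst during a one-step fixation (final 0.05% Triton X-100, 1% formaldehyde, 1 ug/ml Hoechst) carried out 5 days after dosing, then counted on 4× images. The cells, lung cancer lines in 1536-well plates, had been dosed by pin tool the day after seeding with one drug alone or a fixed anchor-drug dose plus five library-drug doses (not always all listed) in √10 steps. Relative viability is the nuclei count in treated wells divided by that in vehicle wells, and each value is the median of duplicate plates.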

XMD14-99 + AZD7762 = compound: CN1CCN(CC1)C2=CC(=C(C=C2)NC3=NC(=C(S3)C(=O)C4=C(C=CC=C4Cl)Cl)N)OC [XMD14-99] + NC(=O)Nc1cc(-c2cccc(F)c2)sc1C(=O)N[C@H]1CCCNC1 [AZD7762] (partner 0.2 µM)
Outline: as §1

XMD14-99 + Pemetrexed = compound: CN1CCN(CC1)C2=CC(=C(C=C2)NC3=NC(=C(S3)C(=O)C4=C(C=CC=C4Cl)Cl)N)OC [XMD14-99] + Nc1nc2[nH]cc(CCc3ccc(C(=O)N[C@@H](CCC(=O)O)C(=O)O)cc3)c2c(=O)[nH]1 [Pemetrexed] (partner 0.2 µM)
Outline: as §1

AZD1208 + Phenformin = compound: N[C@@H]1CCCN(c2c(/C=C3\SC(=O)NC3=O)cccc2-c2ccccc2)C1 [AZD1208] + N=C(N)NC(=N)NCCc1ccccc1 [Phenformin] (partner 250 µM)
Outline: as §1

NCI-H322M
relative viability (XMD14-99 + Tozasertib; first compound 0.08 µM): 0.501 | relative viability (XMD14-99 + Tozasertib; first compound 0.8 µM): 0.488 | relative viability (XMD14-99 + Tozasertib; first compound 2.53 µM): 0.558 | relative viability (XMD14-99 + Tozasertib; first compound 8 µM): 0.414 | relative viability (XMD14-99 + AZD7762; first compound 0.08 µM): 0.593 | relative viability (XMD14-99 + AZD7762; first compound 0.8 µM): 0.542 | relative viability (XMD14-99 + AZD7762; first compound 2.53 µM): 0.583 | relative viability (XMD14-99 + AZD7762; first compound 8 µM): 0.509 | relative viability (XMD14-99 + Pemetrexed; first compound 0.08 µM): 0.654 | relative viability (XMD14-99 + Pemetrexed; first compound 0.8 µM): 0.57 | relative viability (XMD14-99 + Pemetrexed; first compound 2.53 µM): 0.606 | relative viability (XMD14-99 + Pemetrexed; first compound 8 µM): 0.535 | relative viability (AZD1208 + Phenformin; first compound 0.08 µM): 0.761 | relative viability (AZD1208 + Phenformin; first compound 0.253 µM): 0.75 | relative viability (AZD1208 + Phenformin; first compound 0.8 µM): 0.731 | relative viability (AZD1208 + Phenformin; first compound 2.53 µM): 0.741 | relative viability (AZD1208 + Phenformin; first compound 8 µM): 0.782

NCI-H358
relative viability (XMD14-99 + Tozasertib; first compound 0.08 µM): 0.0889 | relative viability (XMD14-99 + Tozasertib; first compound 0.8 µM): 0.102 | relative viability (XMD14-99 + Tozasertib; first compound 2.53 µM): 0.0882 | relative viability (XMD14-99 + Tozasertib; first compound 8 µM): 0.0609 | relative viability (XMD14-99 + AZD7762; first compound 0.08 µM): 0.487 | relative viability (XMD14-99 + AZD7762; first compound 0.8 µM): 0.593 | relative viability (XMD14-99 + AZD7762; first compound 2.53 µM): 0.461 | relative viability (XMD14-99 + AZD7762; first compound 8 µM): 0.455 | relative viability (XMD14-99 + Pemetrexed; first compound 0.08 µM): 0.16 | relative viability (XMD14-99 + Pemetrexed; first compound 0.8 µM): 0.142 | relative viability (XMD14-99 + Pemetrexed; first compound 2.53 µM): 0.178 | relative viability (XMD14-99 + Pemetrexed; first compound 8 µM): 0.146 | relative viability (AZD1208 + Phenformin; first compound 0.08 µM): 0.325 | relative viability (AZD1208 + Phenformin; first compound 0.253 µM): 0.353 | relative viability (AZD1208 + Phenformin; first compound 0.8 µM): 0.309 | relative viability (AZD1208 + Phenformin; first compound 2.53 µM): 0.305 | relative viability (AZD1208 + Phenformin; first compound 8 µM): 0.259

NCI-H441
relative viability (XMD14-99 + Tozasertib; first compound 0.08 µM): 0.693 | relative viability (XMD14-99 + Tozasertib; first compound 0.8 µM): 0.599 | relative viability (XMD14-99 + Tozasertib; first compound 2.53 µM): 0.554 | relative viability (XMD14-99 + Tozasertib; first compound 8 µM): 0.354 | relative viability (XMD14-99 + AZD7762; first compound 0.08 µM): 0.939 | relative viability (XMD14-99 + AZD7762; first compound 0.8 µM): 1.2 | relative viability (XMD14-99 + AZD7762; first compound 2.53 µM): 1.3 | relative viability (XMD14-99 + AZD7762; first compound 8 µM): 0.793 | relative viability (XMD14-99 + Pemetrexed; first compound 0.08 µM): 0.257 | relative viability (XMD14-99 + Pemetrexed; first compound 0.8 µM): 0.289 | relative viability (XMD14-99 + Pemetrexed; first compound 2.53 µM): 0.235 | relative viability (XMD14-99 + Pemetrexed; first compound 8 µM): 0.254 | relative viability (AZD1208 + Phenformin; first compound 0.08 µM): 0.782 | relative viability (AZD1208 + Phenformin; first compound 0.253 µM): 0.66 | relative viability (AZD1208 + Phenformin; first compound 0.8 µM): 0.609 | relative viability (AZD1208 + Phenformin; first compound 2.53 µM): 0.641 | relative viability (AZD1208 + Phenformin; first compound 8 µM): 0.556

NCI-H460
relative viability (XMD14-99 + Tozasertib; first compound 0.08 µM): 0.408 | relative viability (XMD14-99 + Tozasertib; first compound 0.8 µM): 0.376 | relative viability (XMD14-99 + Tozasertib; first compound 2.53 µM): 0.45 | relative viability (XMD14-99 + Tozasertib; first compound 8 µM): 0.188 | relative viability (XMD14-99 + AZD7762; first compound 0.08 µM): 0.619 | relative viability (XMD14-99 + AZD7762; first compound 0.8 µM): 0.601 | relative viability (XMD14-99 + AZD7762; first compound 2.53 µM): 0.634 | relative viability (XMD14-99 + AZD7762; first compound 8 µM): 0.453 | relative viability (XMD14-99 + Pemetrexed; first compound 0.08 µM): 0.067 | relative viability (XMD14-99 + Pemetrexed; first compound 0.8 µM): 0.066 | relative viability (XMD14-99 + Pemetrexed; first compound 2.53 µM): 0.07 | relative viability (XMD14-99 + Pemetrexed; first compound 8 µM): 0.0715 | relative viability (AZD1208 + Phenformin; first compound 0.08 µM): 0.483 | relative viability (AZD1208 + Phenformin; first compound 0.253 µM): 0.697 | relative viability (AZD1208 + Phenformin; first compound 0.8 µM): 0.574 | relative viability (AZD1208 + Phenformin; first compound 2.53 µM): 0.489 | relative viability (AZD1208 + Phenformin; first compound 8 µM): 0.545

NCI-H522
relative viability (XMD14-99 + Tozasertib; first compound 0.08 µM): 0.513 | relative viability (XMD14-99 + Tozasertib; first compound 0.8 µM): 0.646 | relative viability (XMD14-99 + Tozasertib; first compound 2.53 µM): 0.712 | relative viability (XMD14-99 + Tozasertib; first compound 8 µM): 0.639 | relative viability (XMD14-99 + AZD7762; first compound 0.08 µM): 0.693 | relative viability (XMD14-99 + AZD7762; first compound 0.8 µM): 1.01 | relative viability (XMD14-99 + AZD7762; first compound 2.53 µM): 0.806 | relative viability (XMD14-99 + AZD7762; first compound 8 µM): 0.924 | relative viability (XMD14-99 + Pemetrexed; first compound 0.08 µM): 0.867 | relative viability (XMD14-99 + Pemetrexed; first compound 0.8 µM): 1.04 | relative viability (XMD14-99 + Pemetrexed; first compound 2.53 µM): 1.14 | relative viability (XMD14-99 + Pemetrexed; first compound 8 µM): 1.08 | relative viability (AZD1208 + Phenformin; first compound 0.08 µM): 0.614 | relative viability (AZD1208 + Phenformin; first compound 0.253 µM): 0.678 | relative viability (AZD1208 + Phenformin; first compound 0.8 µM): 0.569 | relative viability (AZD1208 + Phenformin; first compound 2.53 µM): 0.618 | relative viability (AZD1208 + Phenformin; first compound 8 µM): 0.479

NCI-H596
relative viability (XMD14-99 + Tozasertib; first compound 0.08 µM): 0.881 | relative viability (XMD14-99 + Tozasertib; first compound 0.8 µM): 0.839 | relative viability (XMD14-99 + Tozasertib; first compound 2.53 µM): 0.892 | relative viability (XMD14-99 + Tozasertib; first compound 8 µM): 0.803 | relative viability (XMD14-99 + AZD7762; first compound 0.08 µM): 1.16 | relative viability (XMD14-99 + AZD7762; first compound 0.8 µM): 1.01 | relative viability (XMD14-99 + AZD7762; first compound 2.53 µM): 1.29 | relative viability (XMD14-99 + AZD7762; first compound 8 µM): 1.15 | relative viability (XMD14-99 + Pemetrexed; first compound 0.08 µM): 0.465 | relative viability (XMD14-99 + Pemetrexed; first compound 0.8 µM): 0.48 | relative viability (XMD14-99 + Pemetrexed; first compound 2.53 µM): 0.447 | relative viability (XMD14-99 + Pemetrexed; first compound 8 µM): 0.494 | relative viability (AZD1208 + Phenformin; first compound 0.08 µM): 0.674 | relative viability (AZD1208 + Phenformin; first compound 0.253 µM): 1.01 | relative viability (AZD1208 + Phenformin; first compound 0.8 µM): 0.689 | relative viability (AZD1208 + Phenformin; first compound 2.53 µM): 0.668 | relative viability (AZD1208 + Phenformin; first compound 8 µM): 0.477

NCI-H647
relative viability (XMD14-99 + Tozasertib; first compound 0.08 µM): 0.203 | relative viability (XMD14-99 + Tozasertib; first compound 0.8 µM): 0.375 | relative viability (XMD14-99 + Tozasertib; first compound 2.53 µM): 0.218 | relative viability (XMD14-99 + Tozasertib; first compound 8 µM): 0.114 | relative viability (XMD14-99 + AZD7762; first compound 0.08 µM): 0.506 | relative viability (XMD14-99 + AZD7762; first compound 0.8 µM): 0.472 | relative viability (XMD14-99 + AZD7762; first compound 2.53 µM): 0.433 | relative viability (XMD14-99 + AZD7762; first compound 8 µM): 0.335 | relative viability (XMD14-99 + Pemetrexed; first compound 0.08 µM): 0.147 | relative viability (XMD14-99 + Pemetrexed; first compound 0.8 µM): 0.14 | relative viability (XMD14-99 + Pemetrexed; first compound 2.53 µM): 0.209 | relative viability (XMD14-99 + Pemetrexed; first compound 8 µM): 0.141 | relative viability (AZD1208 + Phenformin; first compound 0.08 µM): 0.459 | relative viability (AZD1208 + Phenformin; first compound 0.253 µM): 0.837 | relative viability (AZD1208 + Phenformin; first compound 0.8 µM): 0.344 | relative viability (AZD1208 + Phenformin; first compound 2.53 µM): 0.344 | relative viability (AZD1208 + Phenformin; first compound 8 µM): 0.352

NCI-H650
relative viability (XMD14-99 + Tozasertib; first compound 0.08 µM): 0.747 | relative viability (XMD14-99 + Tozasertib; first compound 0.8 µM): 0.688 | relative viability (XMD14-99 + Tozasertib; first compound 2.53 µM): 0.667 | relative viability (XMD14-99 + Tozasertib; first compound 8 µM): 0.581 | relative viability (XMD14-99 + AZD7762; first compound 0.08 µM): 1.05 | relative viability (XMD14-99 + AZD7762; first compound 0.8 µM): 1.06 | relative viability (XMD14-99 + AZD7762; first compound 2.53 µM): 1.16 | relative viability (XMD14-99 + AZD7762; first compound 8 µM): 0.851 | relative viability (XMD14-99 + Pemetrexed; first compound 0.08 µM): 0.932 | relative viability (XMD14-99 + Pemetrexed; first compound 0.8 µM): 1.03 | relative viability (XMD14-99 + Pemetrexed; first compound 2.53 µM): 0.929 | relative viability (XMD14-99 + Pemetrexed; first compound 8 µM): 0.961 | relative viability (AZD1208 + Phenformin; first compound 0.08 µM): 0.535 | relative viability (AZD1208 + Phenformin; first compound 0.253 µM): 0.51 | relative viability (AZD1208 + Phenformin; first compound 0.8 µM): 0.448 | relative viability (AZD1208 + Phenformin; first compound 2.53 µM): 0.416 | relative viability (AZD1208 + Phenformin; first compound 8 µM): 0.427

Source: the supplement of paper PMC10307832
